For the series the following is noted: DVS at 25° C., humidity program 50% r.h. to 95% r.h. and back to 50% r.h. On the procedure: Dynamic vapor sorption: DVS is performed at 25° C. with an SPS11-100n “Sorptions Prüfsystem” of Projekt Messtechnik, D-89077 Ulm (Germany). About 25 mg of sample is put into an aluminum sample pan. Humidity program: 50% relative humidity (r.h.) for 2 hours, 50% r.h. to 95% r.h. (humidity change rate 5% per hour), 95% r.h. for 5 hours, 95% r.h. to 50% r.h. (humidity change rate 5% per hour), 50% r.h. for 2 hours.

With `Cc1nc(Nc2ncc(C(=O)Nc3c(C)cccc3Cl)s2)cc(N2CCN(CCO)CC2)n1.O=C1NS(=O)(=O)c2ccccc21` [Example 5, Dasatinib saccharinate (hydrate)], the “hygroscopicity by DVS” value is “not hygroscopic”.

These data come from patent publication US9556164B2, “Salts of Dasatinib in crystalline form” (BASF SE, priority 2013, dated 2017).
